From patent US20160113904A1, “SKIN CARE PRODUCTS COMPRISING SUBSTITUTED HYDROXYPROLINE WITH UNSATURATED FATTY ACIDS DERIVATIVES” (MEDWELL LABORATORIES LTD., priority 2013, published 2016)
“Also recorded” adds a separate entry of the source.

How the values were obtained:
Format in all cases: in vivo, human
[1] = system: healthy female volunteers, facial skin; assay: Anti wrinkle test: hydration level by Corneometer; details: face, treated area
Procedure: (§1) Ten healthy female volunteers were included and completed the study.
(§2) Moisture level of the skin (corneometry) and TEWL (Trans Epidermal Water Loss) were measured at each time point.
(§3) A cosmetic anti wrinkle product MW-001 was applied on half of the face for four weeks by each volunteer while the other half served as a control, without any product application during the whole test period.
Hydration level was evaluated by Corneometer, Courage & Khazaka, CK. The probe of the corneometer was placed on the skin at a constant pressure and measurements of skin hydration were taken. Skin hydration was recorded at T0, T1 and T2. Each measurement was repeated three times, and the average of the repeated measurements was calculated and assembled in the test results. The room temperature and humidity were kept constant.
The corneometry results are provided in arbitrary units.

[2] = system: volunteers with Atopic dermatitis; assay: Atopic dermatitis trial: erythema level by Mexameter; details: for Change in erythema level / Erythema level: treated area; for Erythema level: Mexameter
Procedure: (§4) Ten volunteers aged 2-30 years participated in the trial. Four females and six males.
(§5) Volunteers were instructed to apply the product only on one side of the body, on the worst affected area, while the other side was defined as the control area and was not treated. The tested material, a body lotion product, was applied 1-3 times a day for a period of 4 weeks.
Erythema level was evaluated by Mexameter, Courage & Khazaka, CK. The probe of the Mexameter was placed on the skin at a constant pressure and measurements of skin hydration were taken. Skin erythema level was recorded at baseline, after 1 week and after 2 weeks of treatment.
(§6) A statistical comparison between T0 and the other two time-points (T1 and T2) and between the treated and the Control areas were made according to the Wilcoxon signed-ranks test, while p<0.05 indicated a significant difference

[3] = system: volunteers with psoriasis; assay: Psoriasis trial: erythema level by Mexameter; details: treated area
Procedure: Fifteen volunteers aged 29-73 with psoriasis.
Volunteers were instructed to apply the product only on one side of the body, on the worst affected area at least once a day, for 4 weeks, while the other side was defined as the control area and was not treated.
Erythema level was evaluated by Mexameter, Courage & Khazaka, CK. The probe of the Mexameter was placed on the skin at a constant pressure find measurements of skin hydration were taken. Skin erythema level was recorded at baseline, after 2 weeks and after 4 weeks of treatment.
A statistical comparison between T0 and the other two time-points (T1 and T2) and between the treated and the Control areas were made by paired sample t-test, while p<0.05 indicated a significant difference

[4] = system: volunteers with Atopic dermatitis; assay: Atopic dermatitis trial: hydration level by Corneometer; details: for Change in hydration level / Hydration level: treated area; for Hydration level: Corneometer
Procedure: as §4, §5
Hydration level was evaluated by Comeometer CM 825, Courage & Khazaka, CK. The probe of the Corneometer was placed on the skin at a constant pressure and measurements of skin hydration were taken. Skin hydration was recorded at baseline, after 1 week and after 2 weeks of treatment. Room temperature and humidity were kept constant.
as §6

[5] = system: volunteers with Atopic dermatitis; assay: Atopic dermatitis trial: transepidermal water loss (TEWL) by Tewameter; details: treated area
Procedure: as §4, §5
Transepidermal water loss (TEWL) was measured by Tewameter 300 TM, Courage & Khazaka, CK. TEWL was recorded at baseline and after one week and after two weeks of treatment. Room temperature and humidity were kept constant.
as §6

[6] = system: healthy female volunteers, facial skin; assay: Anti wrinkle test: TEWL by Tewameter; details: face, treated area
Procedure: as §1, §2, §3
TEWL (the ability not to harm the skin barrier) was measured with Tewameter TM 300, Courage & Khazaka, CK. TEWL was recorded at T0, T1 and T2. The results of TEWL in each measurement were recorded after stabilization of the curve of the results in real time. Room temperature and humidity were constant.

[7] = system: volunteers with Atopic dermatitis; assay: Atopic dermatitis trial: side effects; details: topical product use
Text: The participants were asked to keep a record of the daily applications in a diary and to note any side effects resulting from the product application.
In addition to keeping records of side effects, volunteers were asked to immediately report any side effects, such as dryness, burning sensation, peeling of the skin, redness, etc. to 1SR.

[8] = system: healthy female volunteers, facial wrinkles; assay: Anti wrinkle test: volunteers' subjective assessment of wrinkles; details: treated side, scale 0-10
Procedure: as §1
A subjective assessment of facial wrinkles condition was performed by the volunteers at each time point.
as §3
The volunteers filled out a questionnaire after 2 and 4 weeks of application.
The volunteers were asked to answer a questionnaire after four weeks of application, regarding the assessment of each of the tested products, and to evaluate the improvement of the skin beneath and at the side of the eye.

CCC=CCC=CCC=CCC=CCC=CCC=CCCC(=O)N1CC(O)CC1C(=O)O (stereo in doubt) [MW-001]
Average hydration level ([1]; T0 baseline): 60.9 arbitrary units
Average hydration level ([1]; T1 after 2 weeks of use): 53.4 arbitrary units
Average hydration level ([1]; T2 after 4 weeks of use): 53.5 arbitrary units
Change in erythema level ([2]; Baseline): 100%
Erythema level ([2]; T0 baseline): 620.5
Erythema level ([2]; T1 after one week): 562.7
Erythema level ([2]; T2 after two weeks): 600.2
Change in erythema level ([2]; Week 1, relative to baseline): 91%
Change in erythema level ([2]; Week 2, relative to baseline): 97%
Erythema level, statistical analysis of change ([2]; treated side, after 1 week of treatment): decreased significantly
Erythema level, statistical analysis versus baseline ([2]; treated side, after the increase following week 1): not significantly different
Erythema level ([3]; T0 baseline): 562.1
Erythema level ([3]; T1 after two weeks): 517.5
Erythema level ([3]; T2 after four weeks): 576.7
Hydration level, statistical analysis of change ([4]; any of the sides): no significant change
Change in hydration level ([4]; Baseline): 100%
Hydration level ([4]; T0 baseline): 21.1
Hydration level ([4]; T1 after one week): 30.7
Hydration level ([4]; T2 after two weeks): 27.8
Change in hydration level ([4]; Week 1, relative to baseline): 146%
Change in hydration level ([4]; Week 2, relative to baseline): 132%
Change in TEWL level ([5]; Baseline): 100%
TEWL level ([5]; T0 baseline): 13.6 g/m2/h
TEWL level ([5]; T1 after one week): 12.5 g/m2/h
TEWL level ([5]; T2 after two weeks): 10.5 g/m2/h
Change in TEWL level ([5]; Week 1, relative to baseline): 92%
Change in TEWL level ([5]; Week 2, relative to baseline): 78%
Average TEWL level ([6]; T0 baseline): 7.8 g/hm^2
Average TEWL level ([6]; T1 after 2 weeks of use): 9.4 g/hm^2
Average TEWL level ([6]; T2 after 4 weeks of use): 7.6 g/hm^2
Side effects / safety [7]: None of the participants had side effects; also recorded: safe for use
Volunteers' grading of improvement of wrinkle appearance ([8]; after 2 weeks of treatment): 3.5
Volunteers' grading of wrinkle improvement around the eyes ([8]; after 2 weeks of treatment): 3.5
Volunteers' grading of wrinkle improvement around the eyes ([8]; after 4 weeks of treatment): 4.3
Volunteers' grading of improvement in wrinkles appearance ([8]; printed 'After 2 weeks of treatment' (second statement)): 4.6
